In patent publication US20220389061A1, “IMMUNOMODULATORS” (priority 2019, published 2022):
Read-outs that look alike come from different tables or passages of the source. Starred links: 1 amine or outer side, 2 acyl side, 3 side chain; linkers in the order of their positions; H or OH if unused. Positions of bridges follow the written chain, without caps; N, C: chain ends. Non-standard residues stand in square brackets, D forms with d. Residues, ends and D or L forms follow the SMILES beside them. Groups on a side chain read outwards from the residue. *: point of attachment. Trp(1-CH2CO2Me) = COC(=O)Cn1cc(C[C@H](N)C(=O)O)c2ccccc21; Trp(1-CH2COOH) = N[C@@H](Cc1cn(CC(=O)O)c2ccccc12)C(=O)O; Acridine9carbonyl = O=C(c1c2ccccc2nc2ccccc12)*; X23 = COc1cc(NC(=S)*)ccc1-n1cnc(Cl)c1; X95 = O=[N+]([O-])c1cccc(NC(=S)*)c1; Hyp = O=C(O)[C@@H]1C[C@@H](O)CN1; X34 = O=C(c1c2ccccc2cc2ccccc12)*; X56 = COc1cc([N+](=O)[O-])ccc1N*; X27 = Cc1cc([N+](=O)[O-])ccc1N*; X91 = Cc1cc(NC(=S)*)c2ccccc2n1; X96 = Fc1cc(F)c(NC(=S)*)c(F)c1; NH(3-MeOPh) = COc1cccc(N*)c1; NMeNle = CCCC[C@H](NC)C(=O)O; X48 = O=C(c1ccc2ccoc2c1)*; NMeA = CN[C@@H](C)C(=O)O; Dab = NCC[C@H](N)C(=O)O; Dap = NC[C@H](N)C(=O)O; X17 = Cc1cc(C)cc(N*)c1; CO = O=C([*:1])[*:2]

Target: T1, PD-1/PD-L1 (Homo sapiens, UniProt Q9NZQ7)
T1 construct: TVMV protease site linker (C); made in house; host or cells: HEK293T cells
Assay: PD-1/PD-L1 Homogenous Time-Resolved Fluorescence (HTRF) binding assay
Outline: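 Compounds preincubated 15 min with PD-L1-His (10 nM final), then PD-1-Ig (20 nM final) added for 15 min in dPBS with 0.1% BSA, 0.05% Tween-20. Detection by Eu-cryptate anti-Ig (1 nM) and APC anti-His (20 nM) HTRF.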

[1] = PD-L1-His 10 nM pre-incubated with inhibitor, PD-1-Ig 20 nM, read-out: HTRF IC50

T1 sequence (Q9NZQ7 18-239): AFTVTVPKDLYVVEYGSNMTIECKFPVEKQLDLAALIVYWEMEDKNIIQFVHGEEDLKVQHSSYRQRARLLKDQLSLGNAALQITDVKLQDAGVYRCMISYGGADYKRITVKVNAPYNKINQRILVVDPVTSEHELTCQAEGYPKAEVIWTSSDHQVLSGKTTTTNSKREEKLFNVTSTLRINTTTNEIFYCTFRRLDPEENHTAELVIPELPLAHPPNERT

Row | Structure (SMILES) | IC50 [nM] | IC50 [1] [nM]
1 | CCCC[C@H]1C(=O)N(C)[C@@H](CCCC)C(=O)N[C@@H](CC(C)C)C(=O)N[C@H](C(=O)NCC(N)=O)CSCC(=O)N[C@@H](Cc2ccc(O)cc2)C(=O)N(C)[C@@H](C)C(=O)N[C@@H](CC(N)=O)C(=O)N2CCC[C@H]2C(=O)N[C@@H](CNC(=S)Nc2cccc([N+](=O)[O-])c2)C(=O)N[C@@H](CC(C)C)C(=O)N2C[C@H](O)C[C@H]2C(=O)N[C@@H](Cc2c[nH]c3ccccc23)C(=O)N[C@@H](CCNC(=S)Nc2cccc([N+](=O)[O-])c2)C(=O)N[C@@H](Cc2cn(CC(=O)O)c3ccccc23)C(=O)N1C [Example 1036] ({CH2CO}-Y[NMeA]NP[Dap](X95)L[Hyp]W[Dab](X95)[Trp(1-CH2COOH)][NMeNle][NMeNle]LCG-NH2; thioether N-14) | 2.6 | 
2 | CCCC[C@H]1C(=O)N(C)[C@@H](CCCC)C(=O)N[C@@H](CC(C)C)C(=O)N[C@H](C(=O)NCC(N)=O)CSCC(=O)N[C@@H](Cc2ccc(O)cc2)C(=O)N(C)[C@@H](C)C(=O)N[C@@H](CC(N)=O)C(=O)N2CCC[C@H]2C(=O)N[C@@H](CNC(=S)Nc2cc(C)nc3ccccc23)C(=O)N[C@@H](CC(C)C)C(=O)N2C[C@H](O)C[C@H]2C(=O)N[C@@H](Cc2c[nH]c3ccccc23)C(=O)N[C@@H](CCN)C(=O)N[C@@H](Cc2cn(CC(=O)O)c3ccccc23)C(=O)N1C [Example 3053] ({CH2CO}-Y[NMeA]NP[Dap](X91)L[Hyp]W[Dab][Trp(1-CH2COOH)][NMeNle][NMeNle]LCG-NH2; thioether N-14) |  | 3.4
3 | CCCC[C@H]1C(=O)N(C)[C@@H](CCCC)C(=O)N[C@@H](CC(C)C)C(=O)N[C@H](C(=O)NCC(N)=O)CSCC(=O)N[C@@H](Cc2ccc(O)cc2)C(=O)N(C)[C@@H](C)C(=O)N[C@@H](CC(N)=O)C(=O)N2CCC[C@H]2C(=O)N[C@@H](CNC(=O)Nc2ccc([N+](=O)[O-])cc2OC)C(=O)N[C@@H](CC(C)C)C(=O)N2C[C@H](O)C[C@H]2C(=O)N[C@@H](Cc2c[nH]c3ccccc23)C(=O)N[C@@H](CCNC(=O)Nc2ccc([N+](=O)[O-])cc2OC)C(=O)N[C@@H](Cc2cn(CC(=O)O)c3ccccc23)C(=O)N1C [Example 1076] ({CH2CO}-Y[NMeA]NP[Dap]([CO-X56])L[Hyp]W[Dab]([CO-X56])[Trp(1-CH2COOH)][NMeNle][NMeNle]LCG-NH2; thioether N-14) | 8.1 | 
4 | CCCC[C@H]1C(=O)N(C)[C@@H](CCCC)C(=O)N[C@@H](CC(C)C)C(=O)N[C@H](C(=O)NCC(N)=O)CSCC(=O)N[C@@H](Cc2ccc(O)cc2)C(=O)N(C)[C@@H](C)C(=O)N[C@@H](CC(N)=O)C(=O)N2CCC[C@H]2C(=O)N[C@@H](CNC(=O)Nc2cc(C)cc(C)c2)C(=O)N[C@@H](CC(C)C)C(=O)N2C[C@H](O)C[C@H]2C(=O)N[C@@H](Cc2c[nH]c3ccccc23)C(=O)N[C@@H](CCNC(=O)Nc2cccc(OC)c2)C(=O)N[C@@H](Cc2cn(CC(=O)O)c3ccccc23)C(=O)N1C [Example 1121] ({CH2CO}-Y[NMeA]NP[Dap]([CO-X17])L[Hyp]W[Dab]([CO-NH(3-MeOPh)])[Trp(1-CH2COOH)][NMeNle][NMeNle]LCG-NH2; thioether N-14) |  | 14
5 | CCCC[C@H]1C(=O)N(C)[C@@H](CCCC)C(=O)N[C@@H](CC(C)C)C(=O)N[C@H](C(=O)NCC(N)=O)CSCC(=O)N[C@@H](Cc2ccc(O)cc2)C(=O)N(C)[C@@H](C)C(=O)N[C@@H](CC(N)=O)C(=O)N2CCC[C@H]2C(=O)N[C@@H](CNC(=O)Nc2ccc([N+](=O)[O-])cc2C)C(=O)N[C@@H](CC(C)C)C(=O)N2C[C@H](O)C[C@H]2C(=O)N[C@@H](Cc2c[nH]c3ccccc23)C(=O)N[C@@H](CCN)C(=O)N[C@@H](Cc2cn(CC(=O)O)c3ccccc23)C(=O)N1C [Example 1133] ({CH2CO}-Y[NMeA]NP[Dap]([CO-X27])L[Hyp]W[Dab][Trp(1-CH2COOH)][NMeNle][NMeNle]LCG-NH2; thioether N-14) |  | 8.4
6 | CCCC[C@H]1C(=O)N(C)[C@@H](CCCC)C(=O)N[C@@H](CC(C)C)C(=O)N[C@H](C(=O)NCC(N)=O)CSCC(=O)N[C@@H](Cc2ccc(O)cc2)C(=O)N(C)[C@@H](C)C(=O)N[C@@H](CC(N)=O)C(=O)N2CCC[C@H]2C(=O)N[C@@H](CNC(=O)c2c3ccccc3nc3ccccc23)C(=O)N[C@@H](CC(C)C)C(=O)N2C[C@H](O)C[C@H]2C(=O)N[C@@H](Cc2c[nH]c3ccccc23)C(=O)N[C@@H](CCNC(=O)c2c3ccccc3nc3ccccc23)C(=O)N[C@@H](Cc2cn(CC(=O)OC)c3ccccc23)C(=O)N1C [Example 2003] ({CH2CO}-Y[NMeA]NP[Dap](Acridine9carbonyl)L[Hyp]W[Dab](Acridine9carbonyl)[Trp(1-CH2CO2Me)][NMeNle][NMeNle]LCG-NH2; thioether N-14) |  | 22.6
7 | CCCC[C@H]1C(=O)N(C)[C@@H](CCCC)C(=O)N[C@@H](CC(C)C)C(=O)N[C@H](C(=O)NCC(N)=O)CSCC(=O)N[C@@H](Cc2ccc(O)cc2)C(=O)N(C)[C@@H](C)C(=O)N[C@@H](CC(N)=O)C(=O)N2CCC[C@H]2C(=O)N[C@@H](CNC(=O)c2ccc3ccoc3c2)C(=O)N[C@@H](CC(C)C)C(=O)N2C[C@H](O)C[C@H]2C(=O)N[C@@H](Cc2c[nH]c3ccccc23)C(=O)N[C@@H](CCNC(=O)c2ccc3ccoc3c2)C(=O)N[C@@H](Cc2cn(CC(=O)OC)c3ccccc23)C(=O)N1C [Example 3011] ({CH2CO}-Y[NMeA]NP[Dap](X48)L[Hyp]W[Dab](X48)[Trp(1-CH2CO2Me)][NMeNle][NMeNle]LCG-NH2; thioether N-14) |  | 8.2
8 | CCCC[C@H]1C(=O)N(C)[C@@H](CCCC)C(=O)N[C@@H](CC(C)C)C(=O)N[C@H](C(=O)NCC(N)=O)CSCC(=O)N[C@@H](Cc2ccc(O)cc2)C(=O)N(C)[C@@H](C)C(=O)N[C@@H](CC(N)=O)C(=O)N2CCC[C@H]2C(=O)N[C@@H](CNC(=S)Nc2ccc(-n3cnc(Cl)c3)c(OC)c2)C(=O)N[C@@H](CC(C)C)C(=O)N2C[C@H](O)C[C@H]2C(=O)N[C@@H](Cc2c[nH]c3ccccc23)C(=O)N[C@@H](CCN)C(=O)N[C@@H](Cc2cn(CC(=O)O)c3ccccc23)C(=O)N1C [Example 1059] ({CH2CO}-Y[NMeA]NP[Dap](X23)L[Hyp]W[Dab][Trp(1-CH2COOH)][NMeNle][NMeNle]LCG-NH2; thioether N-14) |  | 3.5
9 | CCCC[C@H]1C(=O)N(C)[C@@H](CCCC)C(=O)N[C@@H](CC(C)C)C(=O)N[C@H](C(=O)NCC(N)=O)CSCC(=O)N[C@@H](Cc2ccc(O)cc2)C(=O)N(C)[C@@H](C)C(=O)N[C@@H](CC(N)=O)C(=O)N2CCC[C@H]2C(=O)N[C@@H](CNC(=O)c2c3ccccc3cc3ccccc23)C(=O)N[C@@H](CC(C)C)C(=O)N2C[C@H](O)C[C@H]2C(=O)N[C@@H](Cc2c[nH]c3ccccc23)C(=O)N[C@@H](CCN)C(=O)N[C@@H](Cc2cn(CC(=O)O)c3ccccc23)C(=O)N1C [Example 2015] ({CH2CO}-Y[NMeA]NP[Dap](X34)L[Hyp]W[Dab][Trp(1-CH2COOH)][NMeNle][NMeNle]LCG-NH2; thioether N-14) |  | 3.2
10 | CCCC[C@H]1C(=O)N(C)[C@@H](CCCC)C(=O)N[C@@H](CC(C)C)C(=O)N[C@H](C(=O)NCC(N)=O)CSCC(=O)N[C@@H](Cc2ccc(O)cc2)C(=O)N(C)[C@@H](C)C(=O)N[C@@H](CC(N)=O)C(=O)N2CCC[C@H]2C(=O)N[C@@H](CNC(=S)Nc2c(F)cc(F)cc2F)C(=O)N[C@@H](CC(C)C)C(=O)N2C[C@H](O)C[C@H]2C(=O)N[C@@H](Cc2c[nH]c3ccccc23)C(=O)N[C@@H](CCNC(=S)Nc2c(F)cc(F)cc2F)C(=O)N[C@@H](Cc2cn(CC(=O)O)c3ccccc23)C(=O)N1C [Example 1044] ({CH2CO}-Y[NMeA]NP[Dap](X96)L[Hyp]W[Dab](X96)[Trp(1-CH2COOH)][NMeNle][NMeNle]LCG-NH2; thioether N-14) |  | 3.3
